# Target: ACC2 (Homo sapiens, UniProt O00763)
# Assay: In vitro ACC2 inhibition assay (ADP-Glo)
# Assay type: biochemical
# Conditions: read-out: ACC2
# Description: An exemplary procedure for the in vitro ACC inhibition assay, which can be used to determine the inhibitory action of compounds of the invention toward either ACC1 or ACC2, follows. The ADP-Glo™ Kinase Assay kit from Promega was used. The ADP-Glo™ Kinase Assay is a luminescent ADP detection assay to measure enzymatic activity by quantifying the amount of ADP produced during an enzyme reaction. The assay is performed in two steps; first, after the enzyme reaction, an equal volume of ADP-Glo™ Reagent is added to terminate the reaction and deplete the remaining ATP. Second, the Kinase Detection Reagent is added to simultaneously convert ADP to ATP and allow the newly synthesized ATP to be measured using a luciferase/luciferin reaction. Luminescence can be correlated to ADP concentrations by using an ATP-to-ADP conversion curve. The detailed procedure is as follows. 50 μL of the compound being tested (600 uM in DMSO) was added to a 384-well dilution plate. The compound was diluted 1:3 in succession in DMSO for each row for 11 wells. 0.5 μL ACC2 working solution was added to 384-well white Optiplate assay plate. 0.5 μL diluted compound solution in each column from step 2 to assay plate, each row containing 2 replicates. […] The plates were incubated at room temperature for 15 minutes. 5 μL substrate working solution was added to each well to initiate reaction. […] Plates were incubated at room temperature for 60 minutes. 10 μL ADP glo reagent was added. Plates were incubated at room temperature for 40 minutes. 20 μL kinase detection reagent was added.
# Data for each concentration, as well as the positive and negative controls were averaged, and the standard deviation calculated. Percent inhibition was calculated by the formula: 100× (average negative control−compound)/(average negative control−average positive control). The IC50 for each compound was calculated by fitting the data with a non-linear regression equation: Y=Bottom+(Top-Bottom)/(1+10^((Log IC50−X)*HillSlope)), where X is the log of compound concentration and Y is percent inhibition.
# The compound numbers correspond to the compound numbers in Table 1.
# Chain of ACC2 (O00763 whole entry, species assumed): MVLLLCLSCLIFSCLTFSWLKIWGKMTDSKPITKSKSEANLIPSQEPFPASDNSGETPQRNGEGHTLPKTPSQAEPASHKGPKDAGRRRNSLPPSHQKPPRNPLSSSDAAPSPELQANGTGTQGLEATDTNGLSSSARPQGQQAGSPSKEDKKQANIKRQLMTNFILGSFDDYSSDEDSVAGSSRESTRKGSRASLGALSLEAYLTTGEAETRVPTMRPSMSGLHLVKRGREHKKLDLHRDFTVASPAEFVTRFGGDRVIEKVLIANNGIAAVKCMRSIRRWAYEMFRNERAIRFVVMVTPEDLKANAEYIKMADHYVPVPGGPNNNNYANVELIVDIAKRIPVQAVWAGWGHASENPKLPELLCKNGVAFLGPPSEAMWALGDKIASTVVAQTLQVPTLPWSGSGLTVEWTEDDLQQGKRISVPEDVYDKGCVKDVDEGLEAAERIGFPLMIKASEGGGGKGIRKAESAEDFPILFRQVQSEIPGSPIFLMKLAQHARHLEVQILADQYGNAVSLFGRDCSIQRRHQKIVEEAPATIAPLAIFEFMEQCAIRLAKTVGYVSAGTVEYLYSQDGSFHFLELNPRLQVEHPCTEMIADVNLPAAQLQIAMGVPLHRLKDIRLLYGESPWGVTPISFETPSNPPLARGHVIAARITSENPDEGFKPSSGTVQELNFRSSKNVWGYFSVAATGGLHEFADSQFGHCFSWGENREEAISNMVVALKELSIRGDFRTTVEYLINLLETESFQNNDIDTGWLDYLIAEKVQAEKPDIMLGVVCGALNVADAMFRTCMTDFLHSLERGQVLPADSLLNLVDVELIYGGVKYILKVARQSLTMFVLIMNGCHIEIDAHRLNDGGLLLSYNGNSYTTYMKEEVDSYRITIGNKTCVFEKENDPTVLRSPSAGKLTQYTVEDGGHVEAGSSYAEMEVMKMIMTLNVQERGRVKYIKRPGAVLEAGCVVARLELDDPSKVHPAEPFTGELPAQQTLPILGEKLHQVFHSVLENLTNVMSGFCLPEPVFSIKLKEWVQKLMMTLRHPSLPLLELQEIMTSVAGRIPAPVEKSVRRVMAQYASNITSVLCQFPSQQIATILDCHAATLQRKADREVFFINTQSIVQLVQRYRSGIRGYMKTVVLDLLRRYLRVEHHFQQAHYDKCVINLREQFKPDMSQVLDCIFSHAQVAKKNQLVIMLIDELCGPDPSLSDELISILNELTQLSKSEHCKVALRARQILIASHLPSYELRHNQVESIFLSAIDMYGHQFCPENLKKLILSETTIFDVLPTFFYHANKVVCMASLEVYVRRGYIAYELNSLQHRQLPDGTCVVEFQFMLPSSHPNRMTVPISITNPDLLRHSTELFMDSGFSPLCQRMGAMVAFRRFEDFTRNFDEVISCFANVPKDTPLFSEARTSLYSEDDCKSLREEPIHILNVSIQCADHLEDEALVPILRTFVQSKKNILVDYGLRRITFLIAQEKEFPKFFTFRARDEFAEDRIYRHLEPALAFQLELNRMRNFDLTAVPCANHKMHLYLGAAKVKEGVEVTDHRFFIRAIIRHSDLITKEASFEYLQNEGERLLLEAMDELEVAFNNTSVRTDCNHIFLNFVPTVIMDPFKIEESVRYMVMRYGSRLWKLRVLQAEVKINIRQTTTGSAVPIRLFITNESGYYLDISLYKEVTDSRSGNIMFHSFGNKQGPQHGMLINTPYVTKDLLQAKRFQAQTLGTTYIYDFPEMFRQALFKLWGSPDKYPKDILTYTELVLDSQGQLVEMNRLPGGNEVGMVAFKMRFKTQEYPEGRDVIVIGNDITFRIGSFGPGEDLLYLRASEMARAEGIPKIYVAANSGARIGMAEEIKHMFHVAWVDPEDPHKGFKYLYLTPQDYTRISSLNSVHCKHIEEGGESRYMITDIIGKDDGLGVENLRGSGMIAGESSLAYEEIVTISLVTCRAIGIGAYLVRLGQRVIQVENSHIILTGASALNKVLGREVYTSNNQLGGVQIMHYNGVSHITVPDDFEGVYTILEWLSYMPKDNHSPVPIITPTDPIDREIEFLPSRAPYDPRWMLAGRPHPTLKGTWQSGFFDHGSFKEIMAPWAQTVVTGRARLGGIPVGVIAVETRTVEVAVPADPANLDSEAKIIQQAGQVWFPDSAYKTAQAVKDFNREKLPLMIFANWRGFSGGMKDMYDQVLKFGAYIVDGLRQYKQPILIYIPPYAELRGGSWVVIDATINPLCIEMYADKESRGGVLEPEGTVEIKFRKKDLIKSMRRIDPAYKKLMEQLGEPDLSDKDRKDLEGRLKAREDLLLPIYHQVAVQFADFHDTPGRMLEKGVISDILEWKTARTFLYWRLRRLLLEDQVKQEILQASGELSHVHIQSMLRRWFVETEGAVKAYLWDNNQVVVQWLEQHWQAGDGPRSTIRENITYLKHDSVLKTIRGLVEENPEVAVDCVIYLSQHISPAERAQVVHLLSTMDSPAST
row,Structure (SMILES),IC50 [µM]
1,"CCOC(=O)c1sc2c(c1C)c(=O)n(CC(=O)NCCO)c(=O)n2CCc1ccccc1 [I-48, ethyl 3-[[(2-hydroxyethyl)carbamoyl]methyl]-5-methyl-2,4-dioxo-1-(2-phenylethyl)-1H,2H,3H,4H-thieno[2,3-d]pyrimidine-6-carboxylate]",5 to 20
2,"CCOC(=O)c1sc2c(c1C)c(=O)n(C(C)(C)C(=O)O)c(=O)n2C[C@@H](O)c1ccccc1 [I-102, 2-[6-(ethoxycarbonyl)-1-[(2S)-2-hydroxy-2-phenylethyl]-5-methyl-2,4-dioxo-1H,2H,3H,4H-thieno[2,3-d]pyrimidin-3-yl]-2-methylpropanoic acid]",5 to 20
3,CCOC(=O)c1sc2c(c1C)c(=O)n(CCO)c(=O)n2CCc1nccs1 [I-49],> 50
4,"CCOC(=O)c1sc2c(c1C)c(=O)n(CC(=O)O)c(=O)n2Cc1ccc2ccn(C)c2c1 [I-74, 2-[6-(ethoxycarbonyl)-5-methyl-1-[(1-methyl-1H-indol-6-yl)methyl]-2,4-dioxo-1H,2H,3H,4H-thieno[2,3-d]pyrimidin-3-yl]acetic acid]",5 to 20
5,Cc1c(C(N)=O)sc2c1c(=O)n(CCO)c(=O)n2CCc1ccccc1 [I-47],> 50
6,O=C(O)Cn1c(=O)c2c3c(sc2n(CCc2ccccc2)c1=O)CCCC3 [I-3],20 to 50
7,Cc1c(C(=O)NCCO)sc2c1c(=O)n(CCO)c(=O)n2CCc1ccccc1 [I-57],> 50
8,"Cc1c(C2CCC2)sc2c1c(=O)n(C(C)(C)C(=O)O)c(=O)n2CCc1ccccc1 [I-125, 2-[6-cyclobutyl-5-methyl-2,4-dioxo-1-(2-phenylethyl)-1H,2H,3H,4H-thieno[2,3-d]pyrimidin-3-yl]-2-methylpropanoic acid]",5 to 20
9,"CCOC(=O)c1sc2c(c1C)c(=O)n(CCO)c(=O)n2CCc1ccc(F)cc1 [I-26, ethyl 1-[2-(4-fluorophenyl)ethyll]-3-(2-hydroxyethyl)-5-methyl-2,4-dioxo-1H,2H,3H,4H-thieno[2,3-d]pyrimidine-6-carboxylate]",5 to 20
10,"COCc1sc2c(c1C)c(=O)n(CCO)c(=O)n2CCc1ccccc1 [I-39, 3-(2-hydroxyethyl)-6-(methoxymethyl)-5-methyl-1-(2-phenylethyl)-1H,2H,3H,4H-thieno[2,3-d]pyrimidine-2,4-dione]",20 to 50
11,"CCOC(=O)c1cc2c(=O)n(CC(=O)O)c(=O)n(CCc3ccccc3)c2s1 [I-91, 2-[6-(ethoxycarbonyl)-2,4-dioxo-1-(2-phenylethyl)-1H,2H,3H,4H-thieno[2,3-d]pyrimidin-3-yl]acetic acid]",5 to 20
12,"Cc1c(-c2ncco2)sc2c1c(=O)n(C(C)(C)C(=O)O)c(=O)n2CCC1CCCCC1 [I-176, 2-[1-(2-cyclohexylethyl)-5-methyl-6-(1,3-oxazol-2-yl)-2,4-dioxo-1H,2H,3H,4H-thieno[2,3-d]pyrimidin-3-yl]-2-methylpropanoic acid]",< 5
13,"Cc1c(-c2ncco2)sc2c1c(=O)n(C(C)(C)C(=O)O)c(=O)n2C[C@H](O[C@H]1CC[C@@H](N)CC1)c1ccccc1 [I-167, 2-(1-((R)-2-(((1s,4S)-4-aminocyclohexyl)oxy)-2-phenylethyl)-5-methyl-6-(oxazol-2-yl)-2,4-dioxo-1,2-dihydrothieno[2,3-d]pyrimidin-3(4H)-yl)-2-methylpropanoic acid]",< 5

# Continued, values first:
row,IC50 [µM],Structure (SMILES)
1,< 5,"CCOC(=O)c1sc2c(c1C)c(=O)n(C(C)C(N)=O)c(=O)n2CCc1ccccc1 (stereo not drawn) [I-69, ethyl 3-(1-carbamoylethyl)-5-methyl-2,4-dioxo-1-(2-phenylethyl)-1H,2H,3H,4H-thieno[2,3-d]pyrimidine-6-carboxylate]"
2,< 5,"Cc1c(-c2ncco2)sc2c1c(=O)n(C(C)(C)C(=O)O)c(=O)n2CCc1ccccc1 [I-117, 2-methyl-2-[5-methyl-6-(1,3-oxazol-2-yl)-2,4-dioxo-1-(2-phenylethyl)-1H,2H,3H,34H-thieno[2,3-d]pyrimidin-3-yl]propanoic acid]"
3,< 5,"Cc1c(C2=NCCO2)sc2c1c(=O)n(CC(=O)O)c(=O)n2CCc1ccccc1 [I-87, 2-[6-(4,5-dihydro-1,3-oxazol-2-yl)-5-methyl-2,4-dioxo-1-(2-phenylethyl)-1H,2H,3H,4H-thieno[2,3-d]pyrimidin-3-yl]acetic acid]"
4,< 0.1,"Cc1c(-c2ncco2)sc2c1c(=O)n(C(C)(C)C(=O)O)c(=O)n2C[C@H](OCCO)c1ccccc1 [I-169, 2-[1-[(2R)-2-(2-hydroxyethoxy)-2-phenylethyl]-5-methyl-6-(1,3-oxazol-2-yl)-2,4-dioxo-1H,2H,3H,4H-thieno[2,3-d]pyrimidin-3-yl]-2-methylpropanoic acid]"
5,< 1,"Cc1c(-c2ncco2)sc2c1c(=O)n(Cc1nn[nH]n1)c(=O)n2C[C@H](OC(C)C)c1ccccc1 [I-153, 5-methyl-6-(1,3-oxazol-2-yl)-1-[(2R)-2-phenyl-2-(propan-2-yloxy)ethyl]-3-(1H-1,2,3,4-tetrazol-5-ylmethyl)-1H,2H,3H,4H-thieno[2,3-d]pyrimidine-2,4-dione]"
6,< 1,"Cc1c(-c2ncco2)sc2c1c(=O)n(C(C)(C)C(=O)O)c(=O)n2C[C@H](O[C@H]1CCC[C@@H](O)C1)c1ccccc1 [I-173, 2-(1-((R)-2-(((1S,3R)-3-hydroxycyclohexyl)oxy)-2-phenylethyl)-5-methyl-6-(oxazol-2-yl)-2,4-dioxo-1,2-dihydrothieno[2,3-d]pyrimidin-3(4H)-yl)-2-methylpropanoic acid]"
7,< 5,"Cc1c(-c2ncco2)sc2c1c(=O)n(C(C)(C)C(=O)O)c(=O)n2C[C@H](OC(=O)N1CCOCC1)c1ccccc1 [I-231, 2-methyl-2-[5-methyl-1-[(2R)-2-[(morpholin-4-yl)carbonyloxy]-2-phenylethyl]-6-(1,3-oxazol-2-yl)-2,4-dioxo-1H,2H,3H,4H-thieno[2,3-d]pyrimidin-3-yl]propanoic acid]"
8,< 1,"Cc1c(-c2ncco2)sc2c1c(=O)n(C(C)(C)C(=O)O)c(=O)n2C[C@H](OC[C@@H](C)CO)c1ccccc1 [I-171, 2-(1-((R)-2-((S)-3-hydroxy-2-methylpropoxy)-2-phenylethyl)-5-methyl-6-(oxazol-2-yl)-2,4-dioxo-1,2-dihydrothieno[2,3-d]pyrimidin-3(4H)-yl)-2-methylpropanoic acid]"
9,< 0.1,"COc1ccccc1[C@H](Cn1c(=O)n(C(C)(C)C(=O)NS(C)(=O)=O)c(=O)c2c(C)c(-c3ncco3)sc21)OC(C)C [I-240, N-methanesulfonyl-2-[1-[(2R)-2-(2-methoxyphenyl)-2-(propan-2-yloxy)ethyl]-5-methyl-6-(1,3-oxazol-2-yl)-2,4-dioxo-1H,2H,3H,4H-thieno[2,3-d]pyrimidin-3-yl]-2-methylpropanamide]"
10,< 1,"CCc1ccccc1[C@@H](Cn1c(=O)n(C(C)(C)C(=O)O)c(=O)c2c(C)c(-c3ncco3)sc21)OCCO [I-263, 2-[1-[(2S)-2-(2-ethylphenyl)-2-(2-hydroxyethoxy)ethyl]-5-methyl-6-(1,3-oxazol-2-yl)-2,4-dioxo-1H,2H,3H,4H-thieno[2,3-d]pyrimidin-3-yl]-2-methylpropanoic acid]"
11,< 1,"CCCc1ccccc1CCn1c(=O)n(C(C)(C)C(N)=O)c(=O)c2c(C)c(-c3ncco3)sc21 [I-151, 2-methyl-2-[5-methyl-6-(1,3-oxazol-2-yl)-2,4-dioxo-1-[2-(2-propylphenyl)ethyl]-1H,2H,3H,4H-thieno[2,3-d]pyrimidin-3-yl]propanamide]"

# Reference: patent publication US9453026B2, “ACC inhibitors and uses thereof” (Gilead Apollo, Inc., priority 2011, dated 2016)
